Assay results published in patent publication US20140073637A1, “AMINO-SUBSTITUTED-ALKYLOXY-BENZO[E]PYRIDO[4,3-B]INDOLE DERIVATIVES AS NEW POTENT KINASE INHIBITORS” (INSTITUT CURIE, priority 2011, published 2014).
Where two headings read alike, the source gives them in different places.

Columns and labels:
Assay type in all cases: cell-based
HeLa cells [1] = assay: Cell viability / antiproliferative assay; details: Homo sapiens, HeLa
Source text: Antiproliferative assays with HeLa cells have been performed with the preferred compounds and compared to the C1 and C2. The average of three independent experiments is shown. IC50 obtained with C1 and C2 were previously reported in Hoang et al, 2009, and are indicated for comparison. The lateral chain of each molecule is recalled, knowing that all the molecules have an oxo group at position 11. IC50 are indicated, i.e. the concentration that induced 50% death.
(§1) H358, H322 (lung cancer cells), U373 (glioblastomes) and HeLa ([…]) were grown in DMEM (1.5 g/L glucose) whereas HL60 (human myeloid cell line) cells were in RPMI 1640. U2OS (a human osteosarcoma cell line) cells were cultured in McCoy's Medium 5 A and liver cells (SK Hep 1) in DMEM (4 g/L glucose, (Gibco-Invitrogen). Media (Gibco-Invitrogen), were supplemented with 10% heat-inactivated foetal bovine serum (Gibco-Invitrogen), L-glutamine (2 mM), penicillin (100 UI/ml) and streptomycin (100 μg/ml).
(§2) Cell proliferation assays were conducted in 96 well culture plates. Assays were run in triplicate. Cell viability was estimated upon 72 h of treatment with varying concentrations of compound by addition of CellTiter 96Queous one Solution Reagent (Promega) directly to culture wells under conditions defined by the manufacturer.

U373 = assay: Cell viability test (CellTiter 96 AQueous One Solution); details: Homo sapiens, U373 MG; U373 (Glioblastoma); 72 h of treatment; read-out: IC50 (cell line viability)
Experimental: as §1, §2

SkHep1 = assay: as above; details: Homo sapiens, SK-HEP1; SkHep1 (Liver cells); 72 h of treatment; read-out: IC50 (cell line viability)
Experimental: as §1, §2

U2OS = assay: as above; details: Homo sapiens; U2OS (Osteosarcoma); 72 h of treatment; read-out: IC50 (cell line viability) (converted)
Experimental: as §1, §2

H322 = assay: as above; details: NCI-H322; H322 (Lung); 72 h of treatment; read-out: IC50 (cell line viability)
Experimental: as §1, §2

H358 cells = assay: as above; details: for IC50: Homo sapiens, NCI-H358, H358 (Lung), 72 h of treatment, read-out: IC50 (cell line viability)
Experimental: as §1, §2

HL60 = assay: as above; details: Homo sapiens, HL-60; HL60 (Leukemia); 72 h of treatment; read-out: IC50 (cell line viability)
Experimental: as §1, §2

HeLa cells [2] = assay: Cell cycle analysis by FACS (propidium iodide); details: 0.5 μM
Experimental: The influence of the C14 treatment versus C1 and control (Te) were analysed by FACS following propidium iodine labelling. C1 and C14 were added at the concentration of 0.5 μM and the treatment lasted either 30 h or 48 h. On the top histogram, arrows allowed the visualization of the different phases of the cell cycle and the corresponding data are reported in Table 4.
HeLa cells were incubated in the presence of either C1 (0.5 μM) or C14 (0.5 μM) or DMSO (Te) and the reparation of the cells in the different phases is analyzed by FACS.
Cells were incubated in either the presence or the absence of compounds. For determination of cell cycle profile, cells were fixed by ice-cold 70% ethanol for 1 h and then, incubated with propidium iodide solution (50 μg/ml PI in the presence of 0.2 mg/ml RNAse) for 15 minutes at 37° C. DNA content was measured using the FACS flow cytometer equipped with CellQuest Pro software (Becton Dickinson, San Diego, Calif.).

[3] = tested on: HeLa cells stably expressing aurora B-GFP; assay: Time-lapse of HeLa cells expressing aurora B-GFP; details: 0.5 μM; continuous imaging
Experimental: FIG. 7A: Cells treated by either DMSO (CO: control) or C1 (0.5 μM) or C14 (0.5 μM) were continuously imaged with a ZEISS confocal microscope. […] Mitotic cells were found fluorescent and GFP was concentrated on the centromeres. In control conditions, centromere aligned at metaphase and upon anaphase ongoing fluorescence concentrates on the spindle and finally in the midbody (A, CO). The shape of the cells is visualized by white dotted lines.
HeLa cells expressing aurora B-GFP were treated by either C14 (0.5 μM) or C1 (0.5 μM) or DMSO (control; Co). Mitotic cells were continuously imaged under controlled conditions (37° C. and 5% CO2). The localisation of aurora B-GFP is represented and the elapsed time indicated in the three conditions (FIG. 7A). Control cells divided normally; Aurora B presented on the centromeres (FIG. 7A, CO, To and 10 min) was then transferred on microtubules (FIG. 7A, CO 45 min) and finally concentrated in the mid body (FIG. 7A, CO, 1 h). […] These cells escaped from mitosis without anaphase and gave rise to micronuclei (FIG. 7B, C1). In the presence of C14 (0.5 μM), chromosome aligned normally (FIG. 7B, C14 To) and aurora B-GFP was found accumulated in the mid-zone (FIG. 7B, C14, 18 min, 40 min and 2 h). Finally, these cells spread again without division (FIG. 7B, C14 4 h). […]

[4] = tested on: Hek cells stably expressing tubulin-GFP; assay: Time-lapse of Hek cells expressing tubulin-GFP; details: 0.5 μM; continuous imaging
Experimental: Mitotic Hek cells stably expressing tubulin-GFP were continuously imaged and representative of either control or treated cells (C14 and C1, 0.5 μM) are shown. Elapse times are indicated on each photo.
Mitotic Hek cells stably expressing tubulin-GFP were continuously imaged and representative of either control or treated cells (C14 and C1, 0.5 μM) are shown (FIG. 8). Elapse times are indicated on each photo. In the control as well as in the presence of C1 the mitotic spindle is organized (24 min and To respectively) whereas in the presence of C14, the two poles are only connected by few microtubules (97 min and 130 min). Finally, in the presence of C14, cells escape from mitosis and cytoplasmic microtubules are observed (159 min and 212 min). Note that a duplication of the spindle occurs upon C1 treatment (106 min)

[5] = 72 h, HeLa (Cervix), 72 h of treatment, read-out: IC50 (cell line viability)

Q: Which results are given for `Cc1cncc2c1[nH]c1ccc3cc(OCCN(C)C)ccc3c12` [CH21, 3-(2-N,N-dimethylaminoethyloxy)-8-methyl-7H-benzo[e]pyrido(4,3-b)indole]?
A: IC50 (HeLa cells [1]; [5]): 350 nM; IC50 (U373): 360 nM; IC50 (SkHep1): 450 nM; IC50 (U2OS): 1100 nM; IC50 (H322): 800 nM; IC50 (H358 cells): 450 nM; IC50 (HL60): > 2000 nM

Q: How did the IC50 (HeLa cells [1]; [5]) turn out when `CCc1c[nH]c(=O)c2c1[nH]c1ccc3cc(OC)ccc3c12` [Compound C1, reference compound] was run?
A: 960 nM

Q: And the “<2N in %” value (HeLa cells [2]; 30 h)?
A: 6%

Q: And the “>4N in %” value (HeLa cells [2]; 30 h)?
A: 26%

Q: What about the G0/G1 in % (HeLa cells [2]; 30 h) of the same compound?
A: 24%

Q: What about the G2/M in % (HeLa cells [2]; 30 h) of the same compound?
A: 28%

Q: And the S in % (HeLa cells [2]; 30 h)?
A: 13%

Q: What about the “<2N in %” value (HeLa cells [2]; 48 h) of the same compound?
A: 6%

Q: What about the “>4N in %” value (HeLa cells [2]; 48 h) of the same compound?
A: 41%

Q: What about the G0/G1 in % (HeLa cells [2]; 48 h) of the same compound?
A: 18%

Q: And the G2/M in % (HeLa cells [2]; 48 h)?
A: 22%

Q: What about the S in % (HeLa cells [2]; 48 h) of the same compound?
A: 8%

Q: And the cells still cycling (HeLa cells [2]; after 48 h of treatment)?
A: 48%

Q: What about the “impairment of mitosis (in words)” value [3] of the same compound?
A: prevented anaphase ongoing

Q: And the IC50 (U373)?
A: > 1000 nM

Q: And the IC50 (U2OS)?
A: > 1000 nM

Q: What about the IC50 (H358 cells) of the same compound?
A: 145 nM

Q: And the IC50 (HL60)?
A: 350 nM

Q: What about the “effect on mitotic spindle (in words)” value [4] of the same compound?
A: induced its duplication

Q: With `Cc1c[nH]c(=O)c2c1[nH]c1ccc3cc(OCCN(C)C)ccc3c12` [Compound C14, 3-(2-N,N-Dimethylaminoethoxy)-8-methyl-7H,10H-benzo[e]pyrido(4,3-b)indol-11-one] as the compound, how does the IC50 (HeLa cells [1]; [5]) read?
A: 110 nM

Q: What about the IC50 (HeLa cells [1]; HeLa cells, average of three independent experiments, concentration that induced 50% death, read-out: IC50 (in nM), antiproliferative assay) of the same compound?
A: 170 ± 82 nM

Q: And the “<2N in %” value (HeLa cells [2]; 30 h)?
A: 19%

Q: And the “>4N in %” value (HeLa cells [2]; 30 h)?
A: 56%

Q: And the G0/G1 in % (HeLa cells [2]; 30 h)?
A: 3%

Q: What about the G2/M in % (HeLa cells [2]; 30 h) of the same compound?
A: 18%

Q: What about the S in % (HeLa cells [2]; 30 h) of the same compound?
A: 4%

Q: What about the “cells in G0/G1 and S” value (HeLa cells [2]; 30 h) of the same compound?
A: 7%

Q: And the “<2N in %” value (HeLa cells [2]; 48 h)?
A: 22%

Q: And the “>4N in %” value (HeLa cells [2]; 48 h)?
A: 56%

Q: What about the G0/G1 in % (HeLa cells [2]; 48 h) of the same compound?
A: 2%

Q: What about the G2/M in % (HeLa cells [2]; 48 h) of the same compound?
A: 4%

Q: What about the S in % (HeLa cells [2]; 48 h) of the same compound?
A: 2%

Q: What about the “cells in G0/G1 and S” value (HeLa cells [2]; 48 h) of the same compound?
A: 5%

Q: What about the “impairment of mitosis (in words)” value [3] of the same compound?
A: affected cytokinesis

Q: What about the IC50 (U373) of the same compound?
A: 3100 nM

Q: What about the IC50 (SkHep1) of the same compound?
A: 2000 nM

Q: And the IC50 (U2OS)?
A: 720 nM

Q: What about the IC50 (H322) of the same compound?
A: > 4000 nM

Q: What about the “death of cycling cells” value (H358 cells; 0.5 μM, cycling H358 cells) of the same compound?
A: more than 50%

Q: What about the IC50 (H358 cells) of the same compound?
A: 470 nM

Q: What about the IC50 (HL60) of the same compound?
A: > 2000 nM

Q: What about the “effect on mitotic spindle (in words)” value [4] of the same compound?
A: prevented mitotic spindle organization
